Key:
[1] = tested on: LPS (TLR4)-induced signaling in human monocytes (primary CD14+); test: LPS (TLR4)-induced signaling, western blot; type: cell-based; details: western blot; for formation of p-IKK, p-ERK and p-p38 induced by LPS: 20 min pretreatment, 15 min activation with 100 ng/ml LPS
Description: (§1) Venous blood samples were obtained from healthy male donors in compliance with the Institutional Review Board at the Sheba Medical Center, Ramat Gan, Israel. PBMCs were isolated on Ficoll-Paque PLUS (GE Healthcare, Uppsala, Sweden) using 50 ml Leucosep tubes (Greiner Bio-One, Frickenhausen, Germany). Cells were washed in PBS (Kibbutz Beit Haemek, Israel) and incubated at 4° C. for 15 minutes in a buffer containing PBS and 0.5% bovine serum albumin (BSA) with human CD14 microbeads (Miltenyi Biotec, Bergisch Gladbach, Germany).
(§2) Cells (10^6/ml) were pretreated for 20 min with VB-201 (1-hexadecyl-2-(4′-carboxy)butyl-glycero-3-phosphocholine or 1-hexadecyl-2-(4′-carboxybutyl)-glycerol-3-phosphocholine) or VB-701 at the doses indicated in FIG. 2, or with solvent (Sol), followed by 15 min activation with 100 ng/ml lipopolysaccharide (LPS) or were untreated (Unt). Cells were washed and resuspended in lysis buffer containing 1:100 dithiothreitol (DTT), phosphatase and protease inhibitors (Thermo Scientific). Samples were loaded onto a precast Criterion TGX gel (Bio-Rad, Hemel Hempstead, UK) and transferred onto nitrocellulose membrane. Blots were blocked with 5% milk or BSA in Tris buffered saline and Tween 20 (TBST) for 1 h, followed by incubation with primary and secondary antibodies. Membranes were developed using an ECL kit (Thermo Scientific). The following antibodies were used for immunoblotting:
(§3) Primary antibodies: p-p38 (Cat. No. 4511; 1:1000) and p-IKK (Cat. No. 2697; 1:1000) were from Cell Signaling Technology (Danvers, Mass., USA). p-ERK1/2 (Cat. No. M8159; 1:10000) was purchased from Sigma (Israel). αTubulin (Tub) served as a loading control.
(§4) Secondary antibodies: HRP donkey anti-rabbit (1:5000) and HRP goat anti-mouse (1:3000) were from Jackson ImmunoResearch (West Grove, Pa., USA). HRP donkey anti-goat (1:5000) was from Santa Cruz Biotechnology.
as §2, with “VB-201” for “VB-201 (1-hexadecyl-2-(4′-carboxy)butyl-glycero-3-phosphocholine”, “VB-703” for “1-hexadecyl-2-(4′-carboxybutyl)-glycerol-3-phosphocholine) or VB-701 at the doses indicated in FIG. 2, or with solvent (Sol),”, “LPS.” for “lipopolysaccharide (LPS) or were untreated (Unt).”
as §3, with “Heat shock protein (HSP) 90 (Cat. No. 13119; 1:500) was from Santa Cruz Biotechnology (Santa Cruz, Calif., USA).” for “αTubulin (Tub) served as a loading control.”

[2] = tested on: Pam3CSK4 (TLR2)-stimulated human monocytes (primary CD14+); test: IL-12/23p40 ELISA, Pam3CSK4 (TLR2)-stimulated monocytes; type: cell-based; details: 1 hour pretreatment, 24 hour 300 ng/ml Pam3CSK4, ELISA of supernatant
Description: (§5) Human monocytes were obtained as described in Example 9 and FIG. 9A-9B. Human monocytes were seeded (10^6/ml) and pretreated for 1 hour with VB-201, VB-701 or VB-702, followed by 24 hour activation with 100 ng/ml LPS from Escherichia coli strain 055:B5 (Sigma, Israel) (FIG. 9A) or 300 ng/ml Pam3CSK4 (InvivoGen, San Diego, Calif., USA) (FIG. 9B) to induce cytokine production. IL-12/23p40 concentration in the supernatant was then measured by ELISA (R&D systems, Cat. No. DY1240). Cells activated with solvent (0.5% ethanol in PBS) were used as a control.

[3] = tested on: MCP-1-induced signaling in human monocytes (THP-1 cell line); test: MCP-1-induced signaling, western blot; type: cell-based; details: 20 min pretreatment, 50 ng/ml MCP1, THP-1
Description: THP-1 cells (10^6/ml) were pretreated for 20 min with VB-201 or VB-701 at the doses indicated in FIG. 4, or with solvent, followed by activation with 50 ng/ml MCP1, or were untreated (“Unt”). Cells were washed and resuspended in lysis buffer containing 1:100 dithiothreitol (DTT), phosphatase and protease inhibitors (Thermo Scientific). Samples were loaded onto a precast Criterion TGX gel (Bio-Rad, Hemel Hempstead, UK) and transferred onto nitrocellulose membrane. Blots were blocked with 5% milk or BSA in Tris buffered saline and Tween 20 (TBST) for 1 h, followed by incubation with primary and secondary antibodies. Membranes were developed using an ECL kit (Thermo Scientific). The following antibodies were used for immunoblotting:
Primary antibodies: p-ERK1/2 (Cat. No. M8159; 1:10000) was purchased from Sigma (Israel). p-AKT (Cat. No. 4060; 1:1000) was purchased from Cell Signaling Technology (Danvers, Mass.). αTubulin served as a loading control and was purchased from Sigma (Israel).
as §4

[4] = tested on: human monocytes (primary CD14+); test: Chemokine-induced cell migration trans-well assay; type: cell-based; details: RANTES 100 ng/ml and MCP-1 50 ng/ml, 2-4 hours, FACS count
Description: as §1
Cells (10^6/ml) were pretreated for 20 min with VB-201 or VB-701 at the doses indicated in FIG. 5, or with solvent (Sol).
To test for chemokine-induced cell migration, RANTES (100 ng/ml; Cat. No. 300-06, PeproTech, Israel) and MCP-1 (50 ng/ml; Cat. No. 300-04, PeproTech, Israel) were dissolved in RPMI-1640 medium supplemented with 0.5% fetal bovine serum (FBS) and placed at the lower chamber of QCM 24-well, […], migration assay plates (Corning-Costar, Corning, N.Y.). Cells (3×10^5) were seeded in the upper chamber and incubated for 2-4 hours. Subsequently, the number of cells which migrated to the lower compartment was determined by fluorescence-activated cell sorting (FACS).

[5] = tested on: LPS (TLR4)-stimulated human monocytes (primary CD14+); test: IL-12/23p40 ELISA, LPS (TLR4)-stimulated monocytes; type: cell-based; details: 1 hour pretreatment, 24 hour 100 ng/ml LPS, ELISA of supernatant
Description: as §5

[6] = tested on: PGN (TLR2)-induced signaling in human monocytes (THP-1 cell line); test: PGN (TLR2)-induced signaling, western blot; type: cell-based; details: 20 min pretreatment, 20 μg/ml PGN for 15 minutes
Description: The monocytic THP-1 cell line was purchased from the American Type Tissue Culture Collection (ATCC Cat. No. TIB-202). Cells (10^6/ml) were pretreated for 20 min with VB-201 or VB-701 at the doses indicated in FIG. 3, or with solvent, followed by activation with 20 μg/ml peptidoglycan (PGN) (InvivoGen, San Diego, Calif.) for 15 minutes, or were untreated (“Unt”). Cells were washed and resuspended in lysis buffer containing 1:100 dithiothreitol (DTT), phosphatase and protease inhibitors (Thermo Scientific). Samples were loaded onto a precast Criterion TGX gel (Bio-Rad, Hemel Hempstead, UK) and transferred onto nitrocellulose membrane. Blots were blocked with 5% milk or BSA in Tris buffered saline and Tween 20 (TBST) for 1 h, followed by incubation with primary and secondary antibodies. Membranes were developed using an ECL kit (Thermo Scientific). The following antibodies were used for immunoblotting:
Primary antibodies: p-p38 (Cat. No. 4511; 1:1000) and p-IKK (Cat. No. 2697; 1:1000) were from Cell Signaling Technology (Danvers, Mass., USA). p-ERK1/2 (Cat. No. M8159; 1:10000) was purchased from Sigma (Israel). αTubulin served as a loading control.
as §4

[7] = tested on: human monocytes (THP-1 cell line); test: SDF1-induced cell migration trans-well assay; type: cell-based; details: 5 μg/ml, 20 min pretreatment
TLR4 complex = biological target: T1, TLR4 complex (Homo sapiens, UniProt O00206+Q9Y6Y9); test: LPS binding inhibition assay (biotin-LPS, FACS); details: biotin-LPS 100 ng/ml, FACS
T1 construct: endogenous in cells; probably the human primary monocytes of b454
Description: To assess interference with lipopolysaccharide (LPS) binding, VB-201 or VB-703 were incubated for 20 min with cells (10^6/ml) after which 100 ng/ml of biotin-LPS (InvivoGen) was added for an additional 15 minutes, all at 4° C. Cells were washed, resuspended in FACS buffer and analyzed on a FACS-Calibur device.

[8] = tested on: RANTES-induced signaling in human monocytes (primary CD14+); test: RANTES-induced signaling, western blot; type: cell-based; details: RANTES 100 ng/ml for 15 minutes
Description: as §2
Human monocytes were obtained, treated and analyzed by western blot as described in Example 9 and FIG. 7, except that cells were induced with RANTES (100 ng/ml; Cat. No. 300-06, PeproTech, Israel) for 15 minutes. […] Accordingly, VB-702 and VB-201 inhibit RANTES-induced signaling in human monocytes (primary CD14+).

T1 sequence (O00206 24-839): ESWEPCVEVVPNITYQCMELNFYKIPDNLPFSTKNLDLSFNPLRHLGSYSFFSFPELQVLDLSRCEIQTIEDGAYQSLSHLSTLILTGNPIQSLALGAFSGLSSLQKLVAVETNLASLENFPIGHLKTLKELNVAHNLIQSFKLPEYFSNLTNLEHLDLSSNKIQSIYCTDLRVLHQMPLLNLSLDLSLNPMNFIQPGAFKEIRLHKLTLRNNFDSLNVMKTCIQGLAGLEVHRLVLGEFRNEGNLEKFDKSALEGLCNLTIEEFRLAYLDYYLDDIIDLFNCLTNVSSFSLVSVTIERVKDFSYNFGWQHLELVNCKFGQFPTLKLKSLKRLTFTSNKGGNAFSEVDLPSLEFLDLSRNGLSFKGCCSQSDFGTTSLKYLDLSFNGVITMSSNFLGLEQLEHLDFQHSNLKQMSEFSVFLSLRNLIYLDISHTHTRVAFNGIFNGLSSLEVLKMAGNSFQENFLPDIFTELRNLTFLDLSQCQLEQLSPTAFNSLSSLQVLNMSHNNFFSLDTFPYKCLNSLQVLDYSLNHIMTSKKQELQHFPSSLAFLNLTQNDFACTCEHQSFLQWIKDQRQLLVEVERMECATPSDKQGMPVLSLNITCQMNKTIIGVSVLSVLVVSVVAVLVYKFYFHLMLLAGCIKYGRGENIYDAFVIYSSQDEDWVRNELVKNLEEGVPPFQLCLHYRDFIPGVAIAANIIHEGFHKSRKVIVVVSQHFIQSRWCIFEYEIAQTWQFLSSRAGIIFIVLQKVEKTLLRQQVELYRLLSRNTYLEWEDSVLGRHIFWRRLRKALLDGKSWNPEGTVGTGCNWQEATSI
T1 sequence (Q9Y6Y9 17-160 limits assumed): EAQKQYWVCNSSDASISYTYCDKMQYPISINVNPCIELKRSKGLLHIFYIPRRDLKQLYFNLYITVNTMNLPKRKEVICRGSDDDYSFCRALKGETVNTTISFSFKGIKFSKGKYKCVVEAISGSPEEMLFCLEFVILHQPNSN

CCCCCCCCCCCCCCCCOCC(COP(=O)([O-])OCC[n+]1ccccc1)OCCCCC(=O)O (centres unmarked) [VB-701, 1-hexadecyl-2-(4′-carboxy)butyl-glycero-sn-3-phosphoric acid pyridiniumethyl ester]
formation of p-IKK, p-ERK and p-p38 induced by LPS [1]: inhibit | IL-12p40 levels, Pam3CSK4 (TLR2)-stimulated [2]: inhibit | formation of p-AKT and p-ERK induced by MCP1 [3]: inhibit | chemokine-induced migration of human monocytes [4]: inhibit | IL-12p40 levels, LPS (TLR4)-stimulated [5]: inhibit | formation of p-IKK, p-ERK and p-p38 induced by PGN [6]: inhibit

CCCCCCCCCCC(CCCCCCCC)COCC(COP(=O)([O-])OCC[n+]1ccccc1)OCCCCC(=O)OC (centres unmarked) [VB-705, 1-(2′-octyl)dodecyl-2-(4′-carboxymethyl)butyl-glycero-sn-3-phosphoric acid pyridiniumethyl ester]
formation of p-ERK and p-AKT induced by LPS ([1]; LPS activation): inhibit | SDF1-induced migration of human monocytes (THP-1 cell line) [7]: does not inhibit | LPS-biotin binding to human monocytes (primary CD14+) (TLR4 complex): inhibits

CCCCCCCCCCCCCCCCCCCCOCC(COP(=O)([O-])OCC[n+]1ccccc1)OCCCCC(=O)O (centres unmarked) [VB-702, 1-eicosanyl-2-(4′-carboxy)butyl-glycero-sn-3-phosphoric acid pyridiniumethyl ester]
formation of p-IKK, p-ERK and p-p38 induced by LPS [1]: inhibit | IL-12p40 levels, Pam3CSK4 (TLR2)-stimulated [2]: inhibit | formation of p-ERK induced by RANTES [8]: inhibit | chemokine-induced migration of human monocytes [4]: inhibit | IL-12p40 levels, LPS (TLR4)-stimulated [5]: inhibit

Reference: US10464957B2, “Oxidized lipids and methods of use thereof” (Vascular Biogenics Ltd., priority 2014, dated 2019)
